{"source": "patent US9078805B2", "about": "“Method for producing a drug delivery system on the basis of polyelectrolyte complexes” (LEIBNIZ-INSTITUT FUER POLYMER-FORSCHUNG DRESDEN E.V., priority 2010, dated 2015)", "assay": "Release of the bisphosphonate and stability of the PEC carrier layer on a germanium model substrate, measured via spectroscopic methods", "format": "physicochemical", "conditions": "after 1 minute; layer applied and dried on the same germanium model substrate", "protocol": "50 microliter of this drug-loaded PEC dispersion was brushed onto an inorganic planar model substrate of germanium and dried in the drying oven at 50° C. The measurement of the release of the bisphosphonate and the stability of the PEC carrier layer was carried out via spectroscopic methods. After 24 hours a relative reduction of the bisphosphonate content of the PEC/drug layer of approximately 50% resulted. […] For a layer of the pure bisphosphonate applied and dried on the same model substrate as in the case of PEC/drug, after 1 minute an immediate detachment and thus a relative reduction of the bisphosphonate content of approximately 100% resulted."}
{"smiles": "NCCC(O)(P(=O)(O)O)P(=O)(O)O", "note": "[pure bisphosphonate, pamidronate]", "values": [{"measurement": "relative reduction of the bisphosphonate content (immediate detachment)", "result": "approximately 100%"}]}
